logP data for 1 molecule are collected here from ChEMBL document CHEMBL4765466, “Recent Advances in the Development of PD-L1 Modulators: Degraders, Downregulators, and Covalent Inhibitors” (J Med Chem, 2020).

The data set in a line: Lipophilicity, log P of the compound. Format: physicochemical. The conditions noted are these: octanol/water.

Turning to `COc1nc(OCc2cccc(-c3ccccc3)c2C)ccc1CNCCNC(C)=O`, the logP – broadly, a log measure of how a compound divides between an organic and an aqueous phase – worked out at 4.4.
